26 molecules from ChEMBL document CHEMBL4680352, “Rational design and synthesis of 6-aryl-6H-benzo[c]chromenes as non-steroidal progesterone receptor antagonists for use against cancers” (Bioorg Med Chem, 2021) can be followed below.

Assay [1] concerns A549. Nature of the assay: Antiproliferative activity against human A549 cells assessed as inhibition of cell viability at 20 uM after 72 hrs by CCK-8 assay relative to control. Format: functional.
The test system of assay [2] is BGC-823. The assay is described as follows: Antiproliferative activity against human BGC-823 cells assessed as inhibition of cell viability at 20 uM after 72 hrs by CCK-8 assay relative to control. Format: functional.
Assay [3] relates to PC-3. Nature of the assay: Antiproliferative activity against human PC-3 cells assessed as inhibition of cell viability at 20 uM after 72 hrs by CCK-8 assay relative to control. Format: functional.
Assay [4] has as its system MDA-MB-231. Nature of the assay: Antiproliferative activity against human MDA-MB-231 cells assessed as inhibition of cell viability at 20 uM after 72 hrs by CCK-8 assay relative to control. Format: functional.
Assay [5] relates to MCF7. The assay is described as follows: Antiproliferative activity against human MCF7 cells assessed as inhibition of cell viability at 20 uM after 72 hrs by CCK-8 assay relative to control. It is filed as functional.
Assay [6] has as its system A549. Nature of the assay: Antiproliferative activity against human A549 cells assessed as inhibition of cell viability after 72 hrs by CCK-8 assay. The note with it: A549, 72 h. Format: functional, cell-based.
The test system of assay [7] is BGC-823. The assay is described as follows: Antiproliferative activity against human BGC-823 cells assessed as inhibition of cell viability after 72 hrs by CCK-8 assay. Format: functional, cell-based. The note with it: BGC-823, 72 h.
Assay [8] concerns PC-3. The assay is described as follows: Antiproliferative activity against human PC-3 cells assessed as inhibition of cell viability after 72 hrs by CCK-8 assay. Format: functional, cell-based. The note with it: PC-3, 72 h.
In assay [9] the test system is MDA-MB-231. Nature of the assay: Antiproliferative activity against human MDA-MB-231 cells assessed as inhibition of cell viability after 72 hrs by CCK-8 assay. It is filed as functional, cell-based. The note with it: MDA-MB-231, 72 h.
In assay [10] the test system is MCF7. The assay is described as follows: Antiproliferative activity against human MCF7 cells assessed as inhibition of cell viability after 72 hrs by CCK-8 assay. It is filed as functional, cell-based. The note with it: MCF7, 72 h.
In assay [11] the test system is MCF-10A. Nature of the assay: Cytotoxicity against human MCF-10A cells assessed as inhibition of cell viability after 72 hrs by CCK-8 assay. It is filed as cell-based.
The nature of assay [12]: Selectivity index, ratio of IC50 for human MCF-10A cells to IC50 for human MCF-7 cells.

Take `COc1ccc(C2Oc3ccc(OC)cc3-c3ccccc32)cc1` (stereo unspecified): the inhibition at 20 µM is 36.2% in assay [1]; 42.5% in [2]; 36.3% in assay [3]; 28.2% in assay [4]; 34.7% in assay [5].

With `COc1ccc2c(c1)-c1ccccc1OC2c1cccc(C)c1` (stereo unspecified), the inhibition at 20 µM was found to be 34.4% in assay [1]; 32% in assay [2]; 42.3% in assay [3]; 24.9% in [4]; 33.8% in assay [5].

`COc1ccc2c(c1)-c1ccccc1OC2c1ccc(Cl)cc1` (stereo unspecified): the inhibition at 20 µM stood at 36% in assay [1]; 37% in assay [2]; 41.1% in [3]; 32.4% in assay [4]; 35.6% in assay [5].

With `COc1ccc(C2Oc3ccc(C)cc3-c3ccccc32)cc1` (stereo unspecified), the inhibition at 20 µM in [1] is 29.4%; in assay [2], 27.6%; in assay [3] it was 36.3%; in [4], 23.2%; in [5], 32.9%.

For `COc1ccc2c(c1)-c1ccccc1OC2c1ccccc1OC` (stereo unspecified), the IC50 came out at 23.5 µM in [6]; 26.1 µM in assay [7]; 21.4 µM in assay [8]; 15.2 µM in [9]; 8.92 µM in assay [10]; 61.6 µM in assay [11]. Also, in assay [12], the “Ratio IC50” value is reported as 6.9.

As for `COc1ccc2c(c1)-c1ccccc1OC2c1ccc(C)cc1` (stereo unspecified), the inhibition at 20 µM in assay [1] was 31.1%; in assay [2] it was 37.4%; in assay [3], 38.9%; in assay [4], 35.7%; in assay [5], 40.4%.

For `COc1ccc2c(c1)-c1ccccc1OC2c1ccc(SC)cc1` (stereo unspecified), the inhibition at 20 µM was 31.8% in assay [1]; 39.4% in assay [2]; 39.7% in assay [3]; 35.3% in assay [4]; 41.4% in assay [5].

Consider `COc1ccc(C2Oc3ccccc3-c3ccccc32)cc1` (stereo unspecified), for which the inhibition at 20 µM in assay [1] was 29.9%; in [2] it was 34.1%; in assay [3], 37%; in assay [4], 21.2%; in assay [5], 34.4%.

As to `COc1ccc(C2Oc3ccccc3-c3cc(OC)ccc32)cc1` (stereo unspecified), the inhibition at 20 µM came out at 49.6% in assay [1]; 50.6% in assay [2]; 55.4% in assay [3]; 52.7% in assay [4]; 59.6% in [5].

On to `COc1cccc(C2Oc3ccccc3-c3cc(OC)ccc32)c1` (stereo unspecified), for which the inhibition at 20 µM in assay [1] was found to be 56.3%; in assay [2] it was 51.9%; in assay [3] it was 57%; in assay [4], 66.1%; in assay [5], 69.4%. The IC50 is 17 µM in assay [6]; 13.2 µM in assay [7]; 14.3 µM in assay [8]; 18.6 µM in assay [9]; 9.94 µM in assay [10]; 58.5 µM in [11]. The “Ratio IC50” value in [12] is given as 5.88.

Regarding `COc1ccc2c(c1)-c1ccccc1OC2c1ccccc1C` (stereo unspecified), the inhibition at 20 µM in [1] was found to be 60.9%; in assay [2] it was 64.2%; in [3] it was 66%; in assay [4], 59.8%; in assay [5], 69.7%. Besides, the IC50 was determined as 8.54 µM in assay [6]; 8.52 µM in [7]; 9.62 µM in assay [8]; 7.41 µM in [9]; 9.29 µM in assay [10]; 44.6 µM in assay [11]. Besides, the “Ratio IC50” value in [12] amounted to 4.8.

On to `COc1ccc(C2Oc3cc(C)ccc3-c3ccccc32)cc1` (stereo unspecified), for which the inhibition at 20 µM in assay [1] worked out at 22.6%; in [2] it was 32.9%; in assay [3], 38.1%; in [4] it was 25.6%; in assay [5] it was 30.3%.

As for `COc1ccc(C2Oc3ccccc3-c3ccc(OC)cc32)cc1` (stereo unspecified), the inhibition at 20 µM worked out at 43.6% in [1]; 47.1% in [2]; 44.7% in [3]; 43.2% in [4]; 45.5% in assay [5].

`COc1ccc2c(c1)-c1ccccc1OC2c1ccc(Br)cc1` (stereo unspecified): the inhibition at 20 µM in [1] amounted to 38.8%; in assay [2], 24.1%; in assay [3], 43.9%; in [4], 31%; in [5], 40.5%.

With `c1ccc2c(c1)OC(c1cccc3ccccc13)c1ccccc1-2` (stereo unspecified), the inhibition at 20 µM came to 31.5% in [1]; 26.1% in assay [2]; 34% in assay [3]; 30.6% in [4]; 26.4% in assay [5].

Regarding `Cc1ccc(C2Oc3ccccc3-c3ccccc32)cc1` (stereo unspecified), the inhibition at 20 µM in assay [1] was 23.5%; in assay [2], 25%; in assay [3] it was 26%; in assay [4], 23.7%; in assay [5] it was 30.2%.

With `COc1cccc(C2Oc3ccccc3-c3cc(OC)c(OC)cc32)c1` (stereo unspecified), the IC50 in assay [6] stood at 11.7 µM; in assay [7] it was 8.99 µM; in assay [8], 10.1 µM; in assay [9], 13.8 µM; in assay [10], 9.53 µM; in assay [11] it was 60.3 µM. Also, the “Ratio IC50” value in assay [12] worked out at 6.33.

As for `COc1ccc2c(c1)-c1ccccc1OC2c1ccccc1` (stereo unspecified), the inhibition at 20 µM is 32% in assay [1]; 30.5% in assay [2]; 31.8% in [3]; 30.6% in assay [4]; 25.6% in assay [5].

For the molecule `COc1ccc(C2Oc3ccc(Br)cc3-c3ccccc32)cc1` (stereo unspecified), the inhibition at 20 µM worked out at 28.9% in assay [1]; 37.8% in assay [2]; 36.1% in assay [3]; 36.1% in [4]; 26.6% in assay [5].

Regarding `COc1ccc2c(c1)-c1ccccc1OC2c1ccc(O[Si](C)(C)C(C)(C)C)cc1` (stereo unspecified), the inhibition at 20 µM in [1] came out at 31.2%; in [2] it was 25.5%; in [3] it was 36.5%; in assay [4] it was 31%; in [5], 31.4%.

As to `CC#C[C@]1(O)CC[C@H]2[C@@H]3CCC4=CC(=O)CCC4=C3[C@@H](c3ccc(N(C)C)cc3)C[C@@]21C` [MIFEPRISTONE], the IC50 in assay [10] turned out to be 24 µM.

In the case of `CCOc1ccc(C2Oc3ccccc3-c3ccccc32)cc1` (stereo unspecified), the inhibition at 20 µM in assay [1] was determined as 34.9%; in assay [2], 26.4%; in [3] it was 34%; in [4] it was 35.6%; in assay [5], 32%.

As to `COc1ccc2c(c1)-c1ccccc1OC2c1cccs1` (stereo unspecified), the inhibition at 20 µM in assay [1] came to 43.9%; in assay [2], 28.2%; in assay [3] it was 53.7%; in assay [4], 38.6%; in assay [5], 53.1%.

Take `CCOc1ccc(C2Oc3ccccc3-c3cc(OC)ccc32)cc1` (stereo unspecified): the inhibition at 20 µM in assay [1] was determined as 40.5%; in assay [2], 26.6%; in [3], 45%; in assay [4] it was 28.3%; in assay [5] it was 41.1%.

In the case of `c1ccc(C2Oc3ccccc3-c3ccccc32)cc1` (stereo unspecified), the inhibition at 20 µM in [1] came to 23.8%; in [2], 18.8%; in [3], 19.2%; in assay [4] it was 27.2%; in assay [5], 25.3%.

Take `COc1ccc2c(c1)-c1ccccc1OC2c1cccc(OC)c1OC` (stereo unspecified): the IC50 in [6] turned out to be 17 µM; in assay [7], 9.23 µM; in assay [8], 7.86 µM; in assay [9], 22.5 µM; in assay [10], 15.2 µM; in assay [11], 47.9 µM. The “Ratio IC50” value in assay [12] is listed as 3.15.
